Data: ChEMBL document CHEMBL5357056, “Precursor-Directed Biosynthesis of Antialgal Fluorinated Bacillamide Derivatives in Bacillus atrophaeus” (J Nat Prod, 2024)

Tests used:
[1] = test system: Karenia brevis; test: Anti-phytoplankton activity against Karenia brevis assessed as change in chlorophyll a level measured after 72 hrs by fluorescence based analysis; format: functional, organism-based
[2] = Anti-phytoplankton activity against Skeletonema grethae assessed as reduction in chlorophyll a level measured after 72 hrs by fluorescence based analysis; format: functional, organism-based

Structure (SMILES)	IC50 [1]	IC50 [2]
N#Cc1c(-c2ccc(Cl)cc2)[nH]c(C(F)(F)F)c1Br	1.35 µM	13.1 µM
CC(=O)NCCc1c[nH]c2ccccc12	> 200 µM	> 200 µM
CC(=O)N[C@H](C)c1nc(C(=O)NCCc2c[nH]c3cccc(F)c23)cs1	> 200 µM	> 200 µM
CC(=O)c1nc(C(=O)NCCc2c[nH]c3cccc(F)c23)cs1	> 200 µM	> 200 µM
CC(=O)N[C@H](C)c1nc(C(=O)NCCc2c[nH]c3ccc(F)cc23)cs1	> 200 µM	> 200 µM
CC(=O)c1nc(C(=O)NCCc2c[nH]c3ccccc23)cs1 [BACILLAMIDE A]	> 200 µM	> 200 µM
CC(=O)N[C@H](C)c1nc(C(=O)NCCc2c[nH]c3ccccc23)cs1 [BACILLAMIDE C]	> 200 µM	> 200 µM
C[C@@H]1C[C@@H]([C@H](O)CC2CC(=O)NC(=O)C2)C(=O)[C@@H](C)C1 [CYCLOHEXIMIDE]	0.55 µM	0.5 µM

Continued, values first:

IC50 [1]	IC50 [2]	Structure (SMILES)
> 200 µM	> 200 µM	CC(=O)NCCc1c[nH]c2cccc(F)c12
28.7 µM	> 200 µM	CC(=O)N[C@H](C)c1nc(C(=O)NCCc2c[nH]c3cc(F)ccc23)cs1
186 µM	> 200 µM	CC(=O)c1nc(C(=O)NCCc2c[nH]c3ccc(F)cc23)cs1
107 µM	> 200 µM	CC(=O)c1nc(C(=O)NCCc2c[nH]c3cc(F)ccc23)cs1
